# Reference: PubChem BioAssay (NCI)
#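 Where inhibition never reached the appropriate level, the endpoint shown equals the highest concentration tested. Otherwise, values were interpolated linearly from a five-concentration, 48-hour dose response in 96-well plates. At the TGI there is no net growth.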
# Key:
# Assay in all cases: growth of human tumour cells (NCI), 48 h
# [1] = tested on: A498 renal
# [2] = tested on: ACHN renal
# [3] = tested on: CCRF-CEM leukemia
# [4] = tested on: DU-145 prostate
# [5] = tested on: HCT-116 colon
# [6] = tested on: LOX IMVI melanoma
# [7] = tested on: MCF7 breast
# [8] = tested on: MDA-MB-435
# [9] = tested on: MOLT-4 leukemia
# [10] = tested on: NCI-H460 lung
# [11] = tested on: NCI-H522 lung
# [12] = tested on: OVCAR-3 ovarian
# [13] = tested on: RPMI-8226 leukemia
# [14] = tested on: RXF 393 renal
# [15] = tested on: SK-OV-3 ovarian
# [16] = tested on: SNB-19 CNS
# [17] = tested on: SW-620 colon
# [18] = tested on: TK-10 renal
# [19] = tested on: UACC-257 melanoma
SMILES,TGI [1],TGI [2],TGI [3],TGI [4],TGI [5],TGI [6],TGI [7],TGI [8],TGI [9],TGI [10],TGI [11],TGI [12],TGI [13],TGI [14],TGI [15],TGI [16],TGI [17],TGI [18],TGI [19]
COc1ccc2c(c1)c1c3c(ccc4ncn2c43)N(CCN(C)C)CCN=1,2.77 µM,5.39 µM,1.09 µM,5.2 µM,1.52 µM,1.53 µM,1.91 µM,1.76 µM,1.5 µM,0.76 µM,0.806 µM,2.4 µM,2.48 µM,2.85 µM,4.04 µM,1.96 µM,2.13 µM,5.73 µM,3.66 µM
CC(C)(C)c1cc(C(C)(C)C)c2sc(=S)oc2c1O,26 µM,20.8 µM,> 27 µM,25.5 µM,21 µM,17.7 µM,27.4 µM,26.8 µM,> 40.8 µM,18.2 µM,20.5 µM,17.5 µM,33.7 µM,14.5 µM,32.8 µM,27.6 µM,> 46.7 µM,17.2 µM,27.4 µM
COC(=O)CCc1ccc2c(c1)CC1(C2)Cc2ccc3c(c2C1)CCC3 (stereo unspecified),> 100 µM,> 100 µM,> 100 µM,> 100 µM,> 100 µM,> 100 µM,> 100 µM,> 100 µM,> 100 µM,> 100 µM,> 100 µM,> 100 µM,> 100 µM,> 100 µM,> 100 µM,> 100 µM,> 100 µM,> 100 µM,> 100 µM
COc1ccc(C2C(Cl)C(=O)N2NC(=O)c2ccc(N)cc2)cc1OC (stereo unspecified),31.5 µM,26.9 µM,4.45 µM,32.1 µM,3 µM,3.55 µM,24.7 µM,19.1 µM,5.16 µM,51.8 µM,3.75 µM,13.1 µM,9.04 µM,30.4 µM,33 µM,30.5 µM,11.2 µM,30.7 µM,29.1 µM
